Read-outs that look alike come from different tables or passages of the source.
Legend:
[1] = target: FRAP1 (mTOR) (Homo sapiens, UniProt P42345); test: SelectScreen biochemical kinase profiling, FRAP1 (mTOR); conditions: cell free, read-out: Enzyme inhibitory activity IC50
Experimental: The in vitro kinase inhibitory assays in the presence of compounds 323-1 and 323-2 were carried out according to the Z′-LYTE™ Screening and LanthaScreen Eu Kinase Binding Assays Experimental Procedures in Invitrogen (ThermoFisher Scientific, Waltham, Mass., USA). For the Z′-LYTE™ Screening profiling for FRAP1 (mTOR), JAK3, and LTK (TYK1), a mixture containing the test compounds in 100% DMSO, 2.4 μL Kinase buffer (50 mM HEPES pH 7.5, 0.01% BRIJ-35, 10 mM MgCl2, 1 mM EGTA), 5 μL 2× Peptide/Kinase Mixture, 2.5 μL 4×ATP Solution were added into black 384-well low volume NBS and bar-coded corning plate (Corning Cat. #4514) and shake the plate for 30 seconds. After incubation at RT for 60 min, 5 μL Development Reagent Solution was added into plate and shake the plate for 30 seconds, followed by Development Reaction incubation at RT for 60 min. Read on fluorescence plate reader and analyze the data. […]
Inhibition by compounds 323-1 and 323-2 of MAP2K4 (MEK4) and TGFBR1 (ALK5) was determined by […]. Inhibition by compounds 323-1 and 323-2 of FRAP1 (mTOR), JAK3, and LTK (TYK1) was determined by […] using the Adapta Universal Kinase Assay (Life Technologies). […]

[2] = target: FGFR2 (Homo sapiens, UniProt P21802); test: SelectScreen kinase profiling, FGFR2; format: biochemical; conditions: read-out: Enzyme inhibitory activity IC50
Sequence of FGFR2 (P21802 22-821): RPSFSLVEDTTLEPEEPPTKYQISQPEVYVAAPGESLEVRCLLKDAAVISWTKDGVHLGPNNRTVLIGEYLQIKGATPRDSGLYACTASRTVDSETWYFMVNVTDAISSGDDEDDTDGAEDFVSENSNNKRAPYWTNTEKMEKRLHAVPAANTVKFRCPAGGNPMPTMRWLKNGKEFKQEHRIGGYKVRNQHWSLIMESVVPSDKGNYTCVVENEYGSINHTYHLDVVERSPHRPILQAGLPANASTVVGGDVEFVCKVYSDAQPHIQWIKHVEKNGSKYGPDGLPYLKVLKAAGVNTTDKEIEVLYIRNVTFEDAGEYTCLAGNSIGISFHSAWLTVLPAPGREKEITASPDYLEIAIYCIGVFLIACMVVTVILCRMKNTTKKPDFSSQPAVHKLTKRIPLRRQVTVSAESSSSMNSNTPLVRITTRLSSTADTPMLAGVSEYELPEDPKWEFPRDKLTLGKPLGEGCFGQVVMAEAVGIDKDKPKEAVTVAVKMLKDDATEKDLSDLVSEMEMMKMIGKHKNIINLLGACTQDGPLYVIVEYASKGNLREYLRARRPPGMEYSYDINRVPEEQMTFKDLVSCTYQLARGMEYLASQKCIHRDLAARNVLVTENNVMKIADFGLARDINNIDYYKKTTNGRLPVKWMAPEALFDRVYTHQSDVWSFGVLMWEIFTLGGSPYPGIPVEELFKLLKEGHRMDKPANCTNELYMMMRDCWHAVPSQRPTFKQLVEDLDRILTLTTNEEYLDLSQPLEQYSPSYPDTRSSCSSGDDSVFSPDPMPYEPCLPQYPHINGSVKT

[3] = target: FLT1 (VEGFR1) (Homo sapiens, UniProt P17948); test: SelectScreen kinase profiling, FLT1; format: biochemical; conditions: read-out: Enzyme inhibitory activity IC50
[4] = target: MAP2K6 (MKK6) (Homo sapiens, UniProt P52564); test: SelectScreen kinase profiling, MAP2K6; format: biochemical; conditions: read-out: Enzyme inhibitory activity IC50
Sequence of MAP2K6 (MKK6) (P52564 whole entry): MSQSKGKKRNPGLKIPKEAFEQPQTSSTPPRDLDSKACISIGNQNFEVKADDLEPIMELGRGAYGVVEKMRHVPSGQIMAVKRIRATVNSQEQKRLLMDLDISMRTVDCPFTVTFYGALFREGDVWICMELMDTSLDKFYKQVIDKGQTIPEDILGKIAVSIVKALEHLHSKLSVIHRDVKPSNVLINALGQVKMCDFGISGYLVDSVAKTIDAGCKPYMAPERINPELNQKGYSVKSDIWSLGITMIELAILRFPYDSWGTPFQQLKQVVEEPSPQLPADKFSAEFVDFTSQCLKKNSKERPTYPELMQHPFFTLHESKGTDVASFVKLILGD

[5] = target: MAPK1 (ERK2) (Homo sapiens, UniProt P28482); test: SelectScreen kinase profiling, MAPK1; format: biochemical; conditions: read-out: Enzyme inhibitory activity IC50
Sequence of MAPK1 (ERK2) (P28482 whole entry): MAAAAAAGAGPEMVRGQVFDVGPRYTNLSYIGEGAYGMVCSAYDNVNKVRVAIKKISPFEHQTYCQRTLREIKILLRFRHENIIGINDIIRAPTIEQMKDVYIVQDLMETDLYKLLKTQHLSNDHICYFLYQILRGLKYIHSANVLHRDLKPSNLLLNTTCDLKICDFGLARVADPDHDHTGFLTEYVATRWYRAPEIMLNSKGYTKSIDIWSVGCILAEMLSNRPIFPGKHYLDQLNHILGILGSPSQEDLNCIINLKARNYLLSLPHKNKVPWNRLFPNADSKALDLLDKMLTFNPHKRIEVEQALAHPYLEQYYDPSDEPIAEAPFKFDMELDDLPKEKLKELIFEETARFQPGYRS

[6] = target: MAPK3 (ERK1) (Homo sapiens, UniProt P27361); test: SelectScreen kinase profiling, MAPK3; format: biochemical; conditions: read-out: Enzyme inhibitory activity IC50
Sequence of MAPK3 (ERK1) (P27361 whole entry): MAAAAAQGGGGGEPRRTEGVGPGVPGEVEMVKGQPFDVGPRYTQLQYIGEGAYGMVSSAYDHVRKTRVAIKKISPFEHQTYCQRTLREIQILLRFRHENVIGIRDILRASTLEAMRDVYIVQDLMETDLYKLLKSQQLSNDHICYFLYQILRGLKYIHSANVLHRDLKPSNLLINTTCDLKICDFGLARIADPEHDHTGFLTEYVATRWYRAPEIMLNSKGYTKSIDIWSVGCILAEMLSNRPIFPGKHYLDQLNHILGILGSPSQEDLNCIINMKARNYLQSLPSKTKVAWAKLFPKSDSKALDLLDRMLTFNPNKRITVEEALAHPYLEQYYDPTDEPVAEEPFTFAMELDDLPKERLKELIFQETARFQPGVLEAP

[7] = target: MAPK8 (JNK1) (Homo sapiens, UniProt P45983); test: SelectScreen kinase profiling, MAPK8; format: biochemical; conditions: read-out: Enzyme inhibitory activity IC50
Sequence of MAPK8 (JNK1) (P45983 whole entry): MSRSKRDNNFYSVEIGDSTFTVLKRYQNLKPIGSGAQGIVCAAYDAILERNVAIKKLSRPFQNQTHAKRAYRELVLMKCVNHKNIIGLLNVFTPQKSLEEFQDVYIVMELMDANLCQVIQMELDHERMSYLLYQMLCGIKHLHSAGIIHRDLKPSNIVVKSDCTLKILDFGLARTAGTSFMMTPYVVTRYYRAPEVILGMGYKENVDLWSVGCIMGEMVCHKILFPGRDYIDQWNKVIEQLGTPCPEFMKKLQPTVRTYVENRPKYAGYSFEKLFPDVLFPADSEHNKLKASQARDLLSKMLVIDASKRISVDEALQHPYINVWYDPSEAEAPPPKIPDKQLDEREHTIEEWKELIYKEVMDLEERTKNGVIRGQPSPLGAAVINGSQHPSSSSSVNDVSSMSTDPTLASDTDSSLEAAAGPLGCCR

[8] = target: MAPK9 (JNK2) (Homo sapiens, UniProt P45984); test: SelectScreen kinase profiling, MAPK9; format: biochemical; conditions: read-out: Enzyme inhibitory activity IC50
Sequence of MAPK9 (JNK2) (P45984 whole entry): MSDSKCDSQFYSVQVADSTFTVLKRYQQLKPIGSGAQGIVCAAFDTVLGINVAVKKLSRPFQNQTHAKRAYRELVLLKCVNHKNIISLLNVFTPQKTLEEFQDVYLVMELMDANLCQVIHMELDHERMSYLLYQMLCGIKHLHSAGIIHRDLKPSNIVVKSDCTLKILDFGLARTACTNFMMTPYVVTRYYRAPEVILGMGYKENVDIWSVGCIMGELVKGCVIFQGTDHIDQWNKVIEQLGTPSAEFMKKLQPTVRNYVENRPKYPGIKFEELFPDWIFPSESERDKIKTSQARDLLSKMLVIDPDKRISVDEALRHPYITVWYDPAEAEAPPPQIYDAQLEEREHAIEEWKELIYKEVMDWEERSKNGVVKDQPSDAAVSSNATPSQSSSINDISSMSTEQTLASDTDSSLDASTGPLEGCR

[9] = target: MET (cMet) (Homo sapiens, UniProt P08581); test: SelectScreen kinase profiling, MET; format: biochemical; conditions: read-out: Enzyme inhibitory activity IC50
[10] = target: PDGFRA (PDGFR alpha) (Homo sapiens, UniProt P16234); test: SelectScreen kinase profiling, PDGFRA; format: biochemical; conditions: read-out: Enzyme inhibitory activity IC50
Sequence of PDGFRA (PDGFR alpha) (P16234 24-1089): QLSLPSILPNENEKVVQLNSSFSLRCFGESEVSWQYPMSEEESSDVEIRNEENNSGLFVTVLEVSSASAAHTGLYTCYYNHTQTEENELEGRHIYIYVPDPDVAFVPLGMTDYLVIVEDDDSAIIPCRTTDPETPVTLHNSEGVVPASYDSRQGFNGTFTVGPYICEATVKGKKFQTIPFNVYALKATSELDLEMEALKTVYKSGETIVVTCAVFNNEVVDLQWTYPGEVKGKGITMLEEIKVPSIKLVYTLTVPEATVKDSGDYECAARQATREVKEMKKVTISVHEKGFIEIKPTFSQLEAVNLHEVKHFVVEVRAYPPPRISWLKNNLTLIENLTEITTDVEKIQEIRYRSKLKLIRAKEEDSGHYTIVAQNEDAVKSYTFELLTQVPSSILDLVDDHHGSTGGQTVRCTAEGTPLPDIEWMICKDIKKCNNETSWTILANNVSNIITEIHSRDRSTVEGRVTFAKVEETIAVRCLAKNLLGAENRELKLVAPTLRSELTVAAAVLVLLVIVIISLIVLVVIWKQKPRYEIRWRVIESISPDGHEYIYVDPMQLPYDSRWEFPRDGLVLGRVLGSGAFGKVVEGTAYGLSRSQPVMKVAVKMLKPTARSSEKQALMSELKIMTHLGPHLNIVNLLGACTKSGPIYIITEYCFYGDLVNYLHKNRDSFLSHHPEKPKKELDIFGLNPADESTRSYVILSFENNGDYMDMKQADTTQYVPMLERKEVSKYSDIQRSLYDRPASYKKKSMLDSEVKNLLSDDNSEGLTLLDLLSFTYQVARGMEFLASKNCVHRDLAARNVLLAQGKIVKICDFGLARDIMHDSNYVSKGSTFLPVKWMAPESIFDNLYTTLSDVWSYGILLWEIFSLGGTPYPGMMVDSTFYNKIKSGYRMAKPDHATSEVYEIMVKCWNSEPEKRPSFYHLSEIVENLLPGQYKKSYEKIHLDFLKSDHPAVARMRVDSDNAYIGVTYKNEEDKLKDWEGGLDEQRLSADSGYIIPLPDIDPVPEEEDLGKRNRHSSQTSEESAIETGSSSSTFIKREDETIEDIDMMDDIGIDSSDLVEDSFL

[11] = target: T1, Recombinant Human STAT3 protein (SH2 domain) (Homo sapiens, UniProt P40763); test: Fluorescence Polarization (FP) competition assay, STAT3 / GpYLPQTV-NH2 peptide; format: binding
T1 construct: purchased Abcam ab43618
T1 sequence (P40763 whole entry, the tested form may be a part): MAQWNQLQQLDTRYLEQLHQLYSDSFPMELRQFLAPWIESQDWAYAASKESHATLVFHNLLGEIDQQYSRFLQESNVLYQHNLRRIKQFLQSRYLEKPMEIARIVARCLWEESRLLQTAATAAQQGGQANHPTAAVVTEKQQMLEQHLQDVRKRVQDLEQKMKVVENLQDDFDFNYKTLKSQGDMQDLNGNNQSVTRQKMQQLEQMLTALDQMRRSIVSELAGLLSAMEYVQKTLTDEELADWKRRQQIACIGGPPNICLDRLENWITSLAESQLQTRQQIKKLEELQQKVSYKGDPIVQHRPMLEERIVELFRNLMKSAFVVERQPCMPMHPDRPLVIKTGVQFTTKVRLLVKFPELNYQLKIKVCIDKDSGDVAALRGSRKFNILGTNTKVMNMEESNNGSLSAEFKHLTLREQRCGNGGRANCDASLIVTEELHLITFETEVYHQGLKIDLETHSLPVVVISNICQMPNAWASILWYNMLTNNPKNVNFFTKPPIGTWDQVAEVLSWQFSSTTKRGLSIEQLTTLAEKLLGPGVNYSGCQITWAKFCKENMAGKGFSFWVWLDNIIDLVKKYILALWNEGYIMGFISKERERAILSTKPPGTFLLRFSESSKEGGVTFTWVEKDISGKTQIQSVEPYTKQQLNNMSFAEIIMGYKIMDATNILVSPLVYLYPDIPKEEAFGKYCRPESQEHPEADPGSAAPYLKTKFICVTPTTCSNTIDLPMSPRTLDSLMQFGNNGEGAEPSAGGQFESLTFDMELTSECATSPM
Experimental: The FP assay was conducted as described by Zhao et al. (J Biol Chem. 2010; 285: 35855-65). The labeled phosphopeptide, 5-FLU-G(P-TYR)LPQTV-NH2 was synthesized by ProImmune (London, UK) with over 95% purity as probe. The Recombinant Human STAT3 protein was purchased from Abcam (ab43618). For saturation curves, various concentration of peptide probe (0-100 nM) and STAT3 protein ([…]) were incubated for 30 min at RT in the buffer (50 mm NaCl, 10 mm HEPES, 1 mm EDTA, 0.1% Nonidet P-40). To obtain the inhibitory effect, drugs (0-1000 μM) and 150 nM human STAT3 were incubated at 37° C. for 1 hour prior to co-incubation with 10 nM of labeled LPQTV peptide at RT for 30 min. […] The fluorescence polarization was then analyzed by the BioTek Synergy™ Neo2 Multi-Mode Microplate Reader (BioTek Instruments, Winooski, Vt., USA). Ki=IC50/(([L])/Kd)+1).
Strategies to target STAT3 SH2 have been pursued recently. These small molecule inhibitors are designed to bind to a site resident in the STAT3 SH2 domain by competing with the p-Tyr705.
As STAT3 may be recruited to gp130 within phosphotyrosine residues, the competitive FP assay was utilized to identify whether 323-1 and 323-2 target STAT3 SH2 domain.
The control was set as 1% DMSO. Data are representative of 2 independent experiments.

[12] = target: T2, STAT3 dimerization (Homo sapiens, UniProt P40763); test: Co-immunoprecipitation of HA-STAT3 and FLAG-STAT3 in 293T cells; format: cell-based; conditions: 50 μM, 24 hours, compared with S3I-201 (200 μM)
T2 construct: expressed in transfected cells; host or cells: 293T cells
T2 sequence (P40763 whole entry): as the sequence (P40763 whole entry, the tested form may be a part) above
Experimental: 293T cells were collected in the medium and centrifuged at 800 g x 5 min, then washed with cold PBS twice before adding 500 μl Pierce™ IP Lysis Buffer (Thermofisher Scientific, 87787), containing protease and phosphatase inhibitor cocktail without DTT (Roche, 11836153001), into the cells. Cell lysates were passed several times through a 27^1/2-gauge needle to disrupt the nuclei. 1-2 mg extracts were added with pre-cleaned 50 μL slurry of Pierce™ […] Magnetic Agarose (Thermoscientific, A36797), then supernatant were collect with magnet and immunoprecipitated (IP) at RT on a rotator for 30 min. Beads were boiled at 95° C. for 5 min followed by adding the 100 μL of 1× Non-reducing Sample Buffer (Thermofisher Scientific, 39000) into beads. The supernatant was collected with a magnet and then added 5 μL of 1M DTT (Thermoscientific, P2325) into sample prior to proceeding the immunoblotting.
Nuclear translocation of the STAT3 dimers mediates the STAT3 transcriptional activity.

[13] = 10 nM peptide, 150 nM human STAT3 (FIG. 20), read-out: Ki, disruption of binding of STAT3 to phosphotyrosine peptide GpYLPQTV
[14] = background (autofluorescence) subtracted (FIG. 33), read-out: Ki, protein-ligand interaction after background subtraction

Compound: C[C@@H]1CCC(c2cc3c4c(cncc4c2)[C@@H](C)C3)=C1C=O [323-2, (15S,2R)-Delavatine A]
- IC50 [1]: 7.52 µM
- IC50 [2]: > 20 µM
- IC50 [3]: > 20 µM
- IC50 [4]: > 20 µM
- IC50 [5]: > 20 µM
- IC50 [6]: > 20 µM
- IC50 [7]: > 20 µM
- IC50 [8]: > 20 µM
- IC50 [9]: > 20 µM
- IC50 [10]: > 20 µM
- Ki [11, 13]: ~75 µM
- Ki [11, 14]: 75 µM
- Potency to disrupt STAT3/GpYLPQTV relative to S3I-201 ([11]; higher than S3I-201): around 5 fold
- Dimerization of STAT3 (HA-STAT3/FLAG-STAT3) [12]: could disrupt the dimerization of STAT3

Compound: C[C@@H]1CCC(c2cc3c4c(cncc4c2)[C@H](C)C3)=C1C=O [323-1, (15R,2R)-Delavatine A]
- IC50 [1]: 6.13 µM
- IC50 [2]: > 20 µM
- IC50 [3]: > 20 µM
- IC50 [4]: > 20 µM
- IC50 [5]: > 20 µM
- IC50 [6]: > 20 µM
- IC50 [7]: > 20 µM
- IC50 [8]: > 20 µM
- IC50 [9]: > 20 µM
- IC50 [10]: > 20 µM
- Ki [11, 13]: ~94 µM
- Ki [11, 14]: 94 µM

From patent US20230286919A1, “ISOQUINOLINE DERIVATIVES FOR USE IN THERAPY” (Vestlandets Innovasjonsselskap AS, priority 2020, published 2023)
